Legend:
[1] = tested on: Large crabgrass (Digitaria sanguinalis); assay: Large crabgrass dose response study, plants from sod farm seed; assay type: in vivo
Experimental: Plants were grown from seed collected from a turfgrass sod farm near where sethoxydim had been continuously used for twelve years. Seeds were planted in 250 mL styrofoam cups with a potting mixture of pure sand in a glasshouse with supplemental lighting (300 uE/m2/s) and 30/25 temperature. Plants were watered once daily and fertilized once a week. Large crabgrass plants were treated with herbicides when 3-5 cm tall in a dose response study. Four herbicides (sethoxydim, fluazifop, clethodim, and pinoxaden) were applied at […]. Plant injury was observed 7 and 14 DAT. The experimental design consisted of a randomized complete block design with three replications. The experiment was replicated in time.

[2] = tested on: Mauna Kea line regenerated from tissue culture (TC); assay: Whole plant greenhouse dose-response, Segment herbicide (Example 8); assay type: in vivo, seashore paspalum (Paspalum vaginatum)
Experimental: (§1) Sethoxydim-resistant plants regenerated from a sethoxydim-resistant cell line, Line A, were tested for resistance at the whole plant level in a dose-response experiment conducted in a greenhouse. In this experiment, Line A was compared to two herbicide-susceptible controls; the original parent line, Mauna Kea (PT); and a Mauna Kea line regenerated from tissue culture (TTC). Plants were transplanted to Cone-tainers™ measuring 4×14 cm and tapering to 1 cm (Stuewe and Sons Inc., Corvallis, Oreg.) containing a 1:1 mix of Fafard® 3B mix and sand and placed on benches under sodium lights in a greenhouse with a 16 hour photoperiod maintained at 27/32° C. day/night for two weeks prior to treatment applications. Each of the three genotypes, Line A, PT and TC were treated with 0, 50, 100, 200, 400, 800, 1600, and 3200 g ai ha^−1 rates of sethoxydim using Segment™ herbicide (BASF Corp., Florham Park, N.J.). All herbicide rates were applied at a spray volume of 1871 ha^−1 in an experimental spray chamber, and after drying, returned to the greenhouse bench and maintained under the conditions described above. Visual estimates of crop injury were recorded at 7, 14, 21, and 28 days after treatment (DAT) using a scale of 0 to 100, where 0 equals no injury and 100 equals complete death. At 42 days after treatment, the above ground portion of all plants was harvested, dried for 48 hours at a temperature of 50° C., and weighed to determine plant dry weight. Treatments were arranged in a randomized complete block design. Only two replications of TCC were possible due to limited plant materials; otherwise four replications were used for the other two genotypes (PT and Line A). Data were first analyzed using a two-way analysis of variance and subsequently analyzed within herbicide rate. Differences among genotype means at each herbicide rate were determined using Fisher's Least Significant Difference (LSD).

[3] = tested on: sethoxydim-resistant Line A; assay: as above; assay type: in vivo, seashore paspalum (Paspalum vaginatum)
Experimental: as §1

In the case of CCC/C(=N\OCC)C1=C(O)CC(CC(C)SCC)CC1=O (stereo not drawn) [sethoxydim, 2-[1-(ethoxyimino)-butyl]-5-[2-(ethylthio)propyl]-3-hydroxy-2-cylohexen-1-one], the “resistance or susceptibility of this population of large crabgrass” value ([1]; conclusion from ED50 values) is reported as “resistant”, the “ED50 of resistant (R) population relative to wild type (S) population” value ([1]; crabgrass, FIG. 17) is reported as “approximately 10 times” and the “effective dose required to cause 50% injury (ED50)” value ([1]; large crabgrass grown from sod farm seed, treated when 3-5 cm tall) is reported as 245±37 g ai/ha. The LD50 [2] was 276 g ai ha^1, the “Plant Injury” value ([2]; 50 g a.i. ha^−1, 7 DAT) was 4.5a % and the “Plant Injury” value ([2]; 50 g a.i. ha^−1, 14 DAT) was 12.5ab %. The “Plant Injury” value ([2]; 50 g a.i. ha^−1, 21 DAT) was 2.5a %, the “Plant Injury” value ([2]; 50 g a.i. ha^−1, 28 DAT) was 0.0a % and the “Dry Weight” value ([2]; 50 g a.i. ha^−1, 42 DAT) was 2.2a grams. For the same molecule, the “Plant Injury” value ([2]; 100 g a.i. ha^−1, 7 DAT) was 18.3b %, the “Plant Injury” value ([2]; 100 g a.i. ha^−1, 14 DAT) was 25.0b % and the “Plant Injury” value ([2]; 100 g a.i. ha^−1, 21 DAT) was 20.0a %. For the same molecule, the “Plant Injury” value ([2]; 100 g a.i. ha^−1, 28 DAT) was 7.5a %, the “Dry Weight” value ([2]; 100 g a.i. ha^−1, 42 DAT) was 1.6ab grams and the “Plant Injury” value ([2]; 200 g a.i. ha^−1, 7 DAT) was 16.7b %. For the same molecule, the “Plant Injury” value ([2]; 200 g a.i. ha^−1, 14 DAT) was 30.0b %, the “Plant Injury” value ([2]; 200 g a.i. ha^−1, 21 DAT) was 40.0b % and the “Plant Injury” value ([2]; 200 g a.i. ha^−1, 28 DAT) was 32.5b %. The “Dry Weight” value ([2]; 200 g a.i. ha^−1, 42 DAT) was 0.4b grams, the “Plant Injury” value ([2]; 400 g a.i. ha^−1, 7 DAT) was 30.8b % and the “Plant Injury” value ([2]; 400 g a.i. ha^−1, 14 DAT) was 82.5b %. For the same molecule, the “Plant Injury” value ([2]; 400 g a.i. ha^−1, 21 DAT) was 80.0b %, the “Plant Injury” value ([2]; 400 g a.i. ha^−1, 28 DAT) was 82.5b % and the “Dry Weight” value ([2]; 400 g a.i. ha^−1, 42 DAT) was 0.1b grams. For the same molecule, the “Plant Injury” value ([2]; 800 g a.i. ha^−1, 7 DAT) was 60.0c %, the “Plant Injury” value ([2]; 800 g a.i. ha^−1, 14 DAT) was 87.5b % and the “Plant Injury” value ([2]; 800 g a.i. ha^−1, 21 DAT) was 95.0b %. The “Plant Injury” value ([2]; 800 g a.i. ha^−1, 28 DAT) was 100.0c %, the “Dry Weight” value ([2]; 800 g a.i. ha^−1, 42 DAT) was 0.1b grams and the “Plant Injury” value ([2]; 1600 g a.i. ha^−1, 7 DAT) was 43.3b %. For the same molecule, the “Plant Injury” value ([2]; 1600 g a.i. ha^−1, 14 DAT) was 100.0c %, the “Plant Injury” value ([2]; 1600 g a.i. ha^−1, 21 DAT) was 100.0c % and the “Plant Injury” value ([2]; 1600 g a.i. ha^−1, 28 DAT) was 100.0b %. The “Dry Weight” value ([2]; 1600 g a.i. ha^−1, 42 DAT) was 0.1b grams, the “Plant Injury” value ([2]; 3200 g a.i. ha^−1, 7 DAT) was 46.7b % and the “Plant Injury” value ([2]; 3200 g a.i. ha^−1, 14 DAT) was 100.0b %. The “Plant Injury” value ([2]; 3200 g a.i. ha^−1, 21 DAT) was 100.0b %, the “Plant Injury” value ([2]; 3200 g a.i. ha^−1, 28 DAT) was 100.0b % and the “Dry Weight” value ([2]; 3200 g a.i. ha^−1, 42 DAT) was 0.1b grams. The injury score ([2]; at rates equal to or greater than 800 g ai ha^−1) was ≥ 80%, the injury score ([2]; at rates of 200 g ai ha^−1, scale of 0 to 100) was ≥ 30 and the LD50 [3] was > 3200 g ai ha^1. The “Plant Injury” value ([3]; 50 g a.i. ha^−1, 7 DAT) was 2.9a %, the “Plant Injury” value ([3]; 50 g a.i. ha^−1, 14 DAT) was 0.0b % and the “Plant Injury” value ([3]; 50 g a.i. ha^−1, 21 DAT) was 1.2a %. For the same molecule, the “Plant Injury” value ([3]; 50 g a.i. ha^−1, 28 DAT) was 0.0a %, the “Dry Weight” value ([3]; 50 g a.i. ha^−1, 42 DAT) was 1.7a grams and the “Plant Injury” value ([3]; 100 g a.i. ha^−1, 7 DAT) was 0.8a %. For the same molecule, the “Plant Injury” value ([3]; 100 g a.i. ha^−1, 14 DAT) was 1.2a %, the “Plant Injury” value ([3]; 100 g a.i. ha^−1, 21 DAT) was 3.8a % and the “Plant Injury” value ([3]; 100 g a.i. ha^−1, 28 DAT) was 2.5a %. For the same molecule, the “Dry Weight” value ([3]; 100 g a.i. ha^−1, 42 DAT) was 2.0a grams, the “Plant Injury” value ([3]; 200 g a.i. ha^−1, 7 DAT) was 1.7a % and the “Plant Injury” value ([3]; 200 g a.i. ha^−1, 14 DAT) was 0.0a %. The “Plant Injury” value ([3]; 200 g a.i. ha^−1, 21 DAT) was 0.0a %, the “Plant Injury” value ([3]; 200 g a.i. ha^−1, 28 DAT) was 0.0a % and the “Dry Weight” value ([3]; 200 g a.i. ha^−1, 42 DAT) was 1.9a grams. The “Plant Injury” value ([3]; 400 g a.i. ha^−1, 7 DAT) was 3.8a %, the “Plant Injury” value ([3]; 400 g a.i. ha^−1, 14 DAT) was 0.0a % and the “Plant Injury” value ([3]; 400 g a.i. ha^−1, 21 DAT) was 2.5a %. For the same molecule, the “Plant Injury” value ([3]; 400 g a.i. ha^−1, 28 DAT) was 0.0a %, the “Dry Weight” value ([3]; 400 g a.i. ha^−1, 42 DAT) was 2.0a grams and the “Plant Injury” value ([3]; 800 g a.i. ha^−1, 7 DAT) was 1.2a %. The “Plant Injury” value ([3]; 800 g a.i. ha^−1, 14 DAT) was 1.2a %, the “Plant Injury” value ([3]; 800 g a.i. ha^−1, 21 DAT) was 3.8a % and the “Plant Injury” value ([3]; 800 g a.i. ha^−1, 28 DAT) was 1.2a %. For the same molecule, the “Dry Weight” value ([3]; 800 g a.i. ha^−1, 42 DAT) was 2.0a grams, the “Plant Injury” value ([3]; 1600 g a.i. ha^−1, 7 DAT) was 4.3a % and the “Plant Injury” value ([3]; 1600 g a.i. ha^−1, 14 DAT) was 0.0a %. For the same molecule, the “Plant Injury” value ([3]; 1600 g a.i. ha^−1, 21 DAT) was 3.8a %, the “Plant Injury” value ([3]; 1600 g a.i. ha^−1, 28 DAT) was 1.2a % and the “Dry Weight” value ([3]; 1600 g a.i. ha^−1, 42 DAT) was 1.5a grams. The “Plant Injury” value ([3]; 3200 g a.i. ha^−1, 7 DAT) was 8.3a %, the “Plant Injury” value ([3]; 3200 g a.i. ha^−1, 14 DAT) was 7.5a % and the “Plant Injury” value ([3]; 3200 g a.i. ha^−1, 21 DAT) was 5.5a %. The “Plant Injury” value ([3]; 3200 g a.i. ha^−1, 28 DAT) was 4.2b %, the “Dry Weight” value ([3]; 3200 g a.i. ha^−1, 42 DAT) was 1.6a grams and the “maximum injury score observed” value ([3]; at 3200 g ai ha^−1) was 7.5%.
